Two molecules from US7951775B2, “Methods and pharmaceutical compositions for GnRH-I and GnRH-II modulation of T-cell activity, adhesion, migration and extravasation” (priority 2001, dated 2011) can be followed below.

The test system of assay [1] is normal human T-cells. Description: Double immunofluorescence staining (FACS) for surface 67 kDa laminin receptor and TCR. To be noted: for 67 kDa LR and TCR positive (double positive) cell population: 10 nM, 48 hours, 37° C., untreated 35.7%; for surface expression of the 67 kDa LR, in words: vs untreated normal human T-cells. The class given is cell-based. On the procedure:
Normal human T-cells, isolated from fresh peripheral blood lymphocytes, or EL-4 T-lymphocyte cells were subjected to double immunofluorescence staining, using a mouse monoclonal anti-67 kDa LR antibody (100 μl of 1:20 dilution per 1×10^6 cells/tube; 30 minutes on ice), or normal mouse sera for control. The cells were then stained with an FITC-conjugated goat anti-mouse IgG (100 μl of 1:100 dilution), and PE-conjugated mouse anti-human TCR αβ mAb (2 μl of stock). Cells that were stained only with the second and third antibodies served as additional negative controls. Fluorescence profiles were recorded in a FACSORT. To determine whether GnRH-II and GnRH-I trigger not only the gene transcription but also the surface expression of the 67 kDa LR, normal human T-cells were treated with either GnRH-II or GnRH-I for 18-66 h and subjected to double immunofluorescence staining using a monoclonal antibody (mAb) that is specific for the 67 kDa LR, and a phycoerythrin (PE)-conjugated anti-TCRαβ mAb (to confirm the T-cell origin of the cells). FIGS. 2A-2C show the staining for the untreated, GnRH-I treated and GnRH-II treated T-cells, respectively. The FACS profiles can be interpreted by division according to four categories: 1. Negative staining for both mAbs (double negative, lower left quadrant); 2. Single positive staining only with the anti-LR mAb (lower right quadrant), 3. Single positive staining only with the anti-TCR mAb (upper left quadrant); 4. Double positive staining with both mAbs (upper right quadrant). […] In different experiments, each using freshly isolated T-cells from a different human donor, both GnRH II and GnRH I repeatedly elevated the laminin receptor expression level, but the magnitude of elevation varied within a range of 6-40%. Such variations between T-cell populations originating from different donors are often observed in respect to various T-cell features and functions.

For another assay, the system named is EL-4 T-lymphoma cells. Nature of the assay: Double immunofluorescence staining for 67 kDa LR and TCRαβ on EL-4 cells. The assay is classed as cell-based, mouse. To be noted: 10 nM, vs untreated EL-4 cells. The procedure: Normal human T-cells, isolated from fresh peripheral blood lymphocytes, or EL-4 T-lymphocyte cells were subjected to double immunofluorescence staining, using a mouse monoclonal anti-67 kDa LR antibody (100 μl of 1:20 dilution per 1×10^6 cells/tube; 30 minutes on ice), or normal mouse sera for control. The cells were then stained with an FITC-conjugated goat anti-mouse IgG (100 μl of 1:100 dilution), and PE-conjugated mouse anti-human TCR αβ mAb (2 μl of stock). Cells that were stained only with the second and third antibodies served as additional negative controls. Fluorescence profiles were recorded in a FACSORT.
Normal syngeneic C57BL/6 female recipient mice were then subjected to 300 rad total body irradiation, and several hours later inoculated I.P with 5×10^6 cells/mouse of either untreated or GnRH-treated EL-4 lymphoma cells. In parallel, samples from the treated and GnRH inoculated EL-4 cells were tested by double immunofluorescence (as described above) for the level of their 67 kD LR and TCRαβ. […] Following further dilution in PBS for the kidney (1:3) and liver (1:10), the number of fluorescent cells, as well as the total number of cells in each tube, were counted by flow cytometry (FACSORT).

For assay [2], the system named is normal human T-cells. Nature of the assay: T-cell adhesion to laminin assay. The class given is cell-based. To be noted: 10 nM, 48 hours pretreatment; PMA 10 ng/ml positive control; four donors. The procedure: Adhesion of T-cells to laminin was assayed as follows: normal human T-cells, purified from a fresh blood sample, were suspended (1×10^6 cells/ml) in rest medium (RPMI-1640, supplemented with 10% fetal calf serum (Sigma Chemical Co., St. Louis, Mo.), 1% antibiotics, 1% glutamine (Biological Industries, Beit Haemek, Israel) and 0.4% fungizone (GibcoBRL, Life Technologies Ltd., Paisley, Scotland)). The cells were then supplemented with 10 nM GnRH-I or GnRH-II and incubated for variable periods of time (0.5-72 hours, 37° C., 7.5% CO2 humidified incubator). Following incubation the cells were washed and resuspended in adhesion medium (RPMI-1640 supplemented with 0.1% bovine serum albumin (BSA, Sigma)). […] The optical density (OD) was measured at 405 nm in a standard ELISA reader. […]
To study the functional consequences of the increase in the 67 kDa LR expression level following GnRH stimulation, the ability of GnRH-treated normal human T-cells to adhere to laminin was assessed. […] In parallel, increasing numbers of untreated cells were seeded on separate plates, in order to establish a standard curve, enabling the relation of results obtained in units of fluorescence intensity (OD) to actual number of cells.

Entries after “also recorded” stand apart in the source; their conditions may differ.

Consider “pGlu-His-Trp-Ser-Tyr-Gly-Leu-Arg-Pro-Gly-NH2 [GnRH-I]”, for which, in the assay on normal human T-cells [1], the “67 kDa LR and TCR positive (double positive) cell population” value came out at 72.4%; the “surface expression of the 67 kDa LR, in words” value is listed as “significantly increased”. Besides, the “surface level of 67 kDa LR on TCR αβ+ EL-4 cells” value with EL-4 T-lymphoma cells is on record as “increases”. The “T-cell adhesion to laminin” value in the assay on normal human T-cells [2] is recorded as “as efficiently as PMA; also recorded: as markedly as does PMA”.

B1: GnRH-II: unique ten amino acid long neuropeptide, 70% homologous in peptide structure to GnRH-I, encoded by its own gene (peptide)
peptide: QHWSHGWYPGGKRALSSAQDPQNALRPPGRALDTAAGSPVQTAHGLPSDALAPLDDSMPWEGRTTAQWSLHRKRHLARTLLTAAREPRPAPPSSNKV
Regarding B1, in the assay with normal human T-cells [1], the “67 kDa LR and TCR positive (double positive) cell population” value is listed as 74.3%; the “surface expression of the 67 kDa LR, in words” value is reported as “significantly increased”. For the same molecule, the “surface level of 67 kDa LR on TCR αβ+ EL-4 cells” value in the assay on EL-4 T-lymphoma cells is given as “increases”. The “T-cell adhesion to laminin” value in the assay with normal human T-cells [2] is listed as “as efficiently as PMA; also recorded: as markedly as does PMA”.
